This note sets out measurements from a flash point compilation (Sun et al. 2020).

Turning to `CCCCCl` [1-Chlorobutane], the flash point is -9.3 °C.

The source holds these as a separate data set.
Consider `C[C@@H]1CCCC[C@H]1C` (relative stereo) [trans-1,2-dimethylcyclohexane], for which the flash point amounted to 6 °C.

Consider `C=C(CC)CC` [2-ethyl-1-butene], for which the flash point is -20 °C.

The molecule `C=C(C)CC` [2-methyl-1-butene] had a flash point of -34 °C.

On to `C1=CC2CCC1C2` [2-norbornene], for which the flash point is -15 °C.

Regarding `CCCCc1ccccc1` [butylbenzene], the flash point came out at 49 °C.

The molecule `C[C@@H]1CCC[C@H](C)C1` [cis-1,3-dimethylcyclohexane] came in with a flash point of 5 °C.

In turn, `CCCCc1ccccc1` [n-butylbenzene] showed a flash point of 59 °C.

`C/C=C/CCC` [trans-2-hexene] gave a flash point of -20 °C.

This is another data set of the same source.
The molecule `CCC(C)CC` [3-Methylpentane] gave a flash point of -32 °C.

The molecule `CCCC(C)(C)CCC` [4,4-Dimethylheptane] showed a flash point of 15 °C.

The molecule `CCCC(CC)CCC` [4-Ethylheptane] showed a flash point of 15 °C.

This is another data set of the same source.
`CCC(C)(C)CCl` [1-Chloro-2,2-dimethylbutane] registered a flash point of 19.1 °C.

As to `CCC(C)CCl` (configuration not stated) [1-Chloro-2-methylbutane], the flash point amounted to 10 °C.

In the case of `CCCC(C)CCl` (configuration not stated) [1-Chloro-2-methylpentane], the flash point worked out at 25.1 °C.

Regarding `CCCC(C)CCCl` (configuration not stated) [1-Chloro-3-methylhexane], the flash point stood at 39.2 °C.

As to `CCC(C)CCCl` (configuration not stated) [1-Chloro-3-methylpentane], the flash point came to 25.1 °C.

`CCCCCl` [1-Chlorobutane]: the flash point was -11.0 °C.

As to `CCCCCCCCl` [1-Chloroheptane], the flash point was determined as 41.8 °C.

In turn, `CCCCCCCCCCCCCCCCCl` [1-Chlorohexadecane] came in with a flash point of 138.2 °C.

With `CCCCCCCl` [1-Chlorohexane], the flash point was 26.8 °C.

Turning to `CCCCCCCCCl` [1-Chlorooctane], the flash point stood at 61.1 °C.

`CCCCCCCCCCCCl` [1-Chloroundecane] came in with a flash point of 94.5 °C.

`CCC(C)C(C)(C)Cl` (configuration not stated) [2-Chloro-2,3-dimethylpentane] registered a flash point of 29.8 °C.

In turn, `CC(C)(C)CC(C)(C)Cl` [2-Chloro-2,4,4-trimethylpentane] gave a flash point of 38.4 °C.

The molecule `CCCCCC(C)(C)Cl` [2-Chloro-2-methylheptane] gave a flash point of 47.2 °C.

`CCCCCCCC(C)(C)Cl` [2-Chloro-2-methylnonane]: the flash point came out at 72.2 °C.

For the molecule `CCCC(C)(C)Cl` [2-Chloro-2-methylpentane], the flash point stood at 21 °C.

`CCCCCCCCC(C)Cl` (configuration not stated) [2-Chlorodecane] registered a flash point of 77.1 °C.

The molecule `CCCCC(C)Cl` (configuration not stated) [2-Chlorohexane] had a flash point of 25.1 °C.

`CCCCCCCC(C)Cl` (configuration not stated) [2-Chlorononane]: the flash point is 65.2 °C.

For the molecule `CCC(CC)CCl` [3-(Chloromethyl)pentane], the flash point stood at 25.1 °C.

With `CCCC(C)(Cl)C(C)(C)C` (configuration not stated) [3-Chloro-2,2,3-trimethylhexane], the flash point was found to be 51.7 °C.

Regarding `CCCC(C)(Cl)C(C)C` (configuration not stated) [3-Chloro-2,3-dimethylhexane], the flash point was 43.6 °C.

The molecule `CCC(Cl)(CC)CC` [3-Chloro-3-ethylpentane] had a flash point of 33.6 °C.

`CCCCC(C)(Cl)CC` (configuration not stated) [3-Chloro-3-methylheptane] came in with a flash point of 47.2 °C.

Molecule `CCCCCCC(C)(Cl)CC` (configuration not stated) [3-Chloro-3-methylnonane] displayed a flash point of 72.2 °C.

In the case of `CCC(C)(Cl)CC` [3-Chloro-3-methylpentane], the flash point came to 9.5 °C.

`CCCCC(Cl)CC` (configuration not stated) [3-Chloroheptane] came in with a flash point of 39.2 °C.

In the case of `CCCC(Cl)CC` (configuration not stated) [3-Chlorohexane], the flash point was 25.1 °C.

In the case of `CCCCC(Cl)CCCC` [5-Chlorononane], the flash point came out at 65.2 °C.

`CCCCCCCCC(Cl)CCCC` (configuration not stated) [5-Chlorotridecane] returned a flash point of 110.1 °C.

As for `CCC[C@H](Cl)CCCC(C)C` [(S)-6-Chloro-2-methylnonane], the flash point is 73.8 °C.

This is another data set of the same source.
As for `C[C@@H]1CCCC[C@H]1C` (relative stereo) [trans-1,2-dimethylcyclohexane], the flash point was determined as 7 °C.

As for `CC1(C)CCCCC1` [1,1-dimethylcyclohexane], the flash point worked out at 7 °C.

In turn, `Cc1cc(C)c(C)c(C)c1` [1,2,3,5-tetramethylbenzene] returned a flash point of 63 °C.

With `CC1=CC(C)CCC1` (configuration not stated) [1,3-dimethylcyclohexene], the flash point came out at 12 °C.

`CCC(C)(C)C(C)(C)C` [2,2,3,3-tetramethylpentane] yielded a flash point of 16 °C.

As for `CCCCC(C)(C)C` [2,2-dimethylhexane], the flash point is -3 °C.

For `CCCCCCC(C)(C)C` [2,2-dimethyloctane], the flash point was 31 °C.

Regarding `CCCCCC(C)C(C)C` (configuration not stated) [2,3-dimethyloctane], the flash point was 36 °C.

On to `CCC(C)CCC(C)C` (configuration not stated) [2,5-dimethylheptane], for which the flash point was 15 °C.

`C=C(CC)CC` [2-ethyl-1-butene] displayed a flash point of -26 °C.

Molecule `CC#CCCCC` [2-heptyne] gave a flash point of 2 °C.

With `C=C(C)CC` [2-methyl-1-butene], the flash point was -47 °C.

For `CCCCCCC(C)C` [2-methyloctane], the flash point worked out at 24 °C.

The molecule `C1=CC2CCC1C2` [2-norbornene] returned a flash point of -14 °C.

In turn, `C=CC(CC)CCC` (configuration not stated) [3-ethyl-1-hexene] gave a flash point of 1 °C.

`C=CC(CC)CC` [3-ethyl-1-pentene] came in with a flash point of -17 °C.

Consider `CCC(C(C)C)C(C)C` [3-ethyl-2,4-dimethylpentane], for which the flash point was determined as 15 °C.

With `CC=C(CC)CC` [3-ethyl-2-pentene], the flash point was -6 °C.

As to `C=CC(C)CCC` (configuration not stated) [3-methyl-1-hexene], the flash point is -18 °C.

Turning to `C=CCC(C)CCC` (configuration not stated) [4-methyl-1-heptene], the flash point was 2 °C.

Molecule `CCCC(C)CCC` [4-methylheptane] registered a flash point of 5 °C.

Molecule `CCCC(CCC)CCC` [4-propylheptane] displayed a flash point of 41 °C.

`C=CCC1CCCCC1` [allylcyclohexane]: the flash point was 29 °C.

Molecule `C1CCC(C2CCCCC2)CC1` [bicyclohexyl] had a flash point of 92 °C.

Regarding `C[C@@H]1CCC[C@H](C)C1` [cis-1,3-dimethylcyclohexane], the flash point was 6 °C.

Molecule `C/C=C\CCCC` [cis-2-heptene] displayed a flash point of -8 °C.

With `CC/C=C\CCC` [cis-3-heptene], the flash point is -9 °C.

For the molecule `C/C=C\C(C)C` [cis-4-methyl-2-pentene], the flash point was -36 °C.

With `C1CC[C@H]2CCCC[C@H]2C1` [cis-decalin], the flash point was determined as 58 °C.

The molecule `CC(C)C1CCCC1` [isopropylcyclopentane] displayed a flash point of 14 °C.

On to `CCCCc1ccccc1` [n-butylbenzene], for which the flash point stood at 50 °C.

Turning to `CCCCC1CCCC1` [n-butylcyclopentane], the flash point is 35 °C.

Take `CCCCCC1CCCCC1` [n-pentylcyclohexane]: the flash point amounted to 66 °C.

In the case of `CCCC1CCCC1` [propylcyclopentane], the flash point was 16 °C.

The molecule `C/C=C/CCC` [trans-2-hexene] yielded a flash point of -27 °C.

Consider `CC/C=C/CC` [trans-3-hexene], for which the flash point was -25 °C.

The source holds these as a separate data set.
For `CC#CCCCC` [2-heptyne], the flash point was determined as 8 °C.

The source holds these as a separate data set.
Regarding `CCc1cccc(CC)c1CC` [1,2,3-triethylbenzene], the flash point was found to be 79 °C.

Consider `Cc1cc(C)cc(C)c1` [1,3,5-trimethylbenzene], for which the flash point was 44.1 °C.

As to `CCCCc1cccc(CCCC)c1` [1,3-dibutylbenzene], the flash point turned out to be 109.2 °C.

`CC(C)(C)c1ccc(C(C)(C)C)cc1` [1,4-di-tert -butylbenzene]: the flash point worked out at 97.0 °C.

`Cc1ccc(C)c(C(C)C)c1` [1,4-dimethyl-2-isopropylbenzene]: the flash point worked out at 64.7 °C.

Molecule `CCCCc1cccc(C)c1` [1-butyl-3-methylbenzene] came in with a flash point of 70.8 °C.

For `CCCCc1ccc(C)cc1` [1-butyl-4-methylbenzene], the flash point was 71.2 °C.

On to `CCc1cccc(C)c1C` [1-ethyl-2,3-dimethylbenzene], for which the flash point was 65.1 °C.

The molecule `CCc1ccc(C)cc1C` [1-ethyl-2,4-dimethylbenzene] returned a flash point of 57.1 °C.

In turn, `CCc1cc(C)cc(C)c1` [1-ethyl-3,5-dimethylbenzene] showed a flash point of 57.4 °C.

As to `Cc1ccccc1CC(C)C` [1-isobutyl-2-methylbenzene], the flash point is 68.7 °C.

`Cc1cc(C)cc(C(C)(C)C)c1` [1-tert -butyl-3,5-dimethylbenzene] displayed a flash point of 72 °C.

Molecule `CCc1c(C)cccc1C` [2-ethyl-1,3-dimethylbenzene] displayed a flash point of 62.0 °C.

Molecule `Cc1ccccc1C(C)(C)C` [2-tert -butyltoluene] registered a flash point of 61.5 °C.

`CC(C)CC(C)Cc1ccccc1` (configuration not stated) [(2,4-dimethylpentyl)benzene]: the flash point was found to be 87.0 °C.

The molecule `CCC(C)Cc1ccccc1` (configuration not stated) [(2-methylbutyl)benzene] came in with a flash point of 64.1 °C.

`CCCCc1ccccc1` [butylbenzene] registered a flash point of 58.1 °C.

Consider `CCCCCCc1ccccc1` [hexylbenzene], for which the flash point was 83.6 °C.

The molecule `CCc1cccc(CC)c1` [m -diethylbenzene] gave a flash point of 51.1 °C.

Regarding `CCc1cccc(C(C)C)c1` [m -ethylcumene], the flash point came to 63 °C.

For the molecule `CCCc1cccc(C)c1` [m -propyltoluene], the flash point is 52 °C.

Molecule `CC(C)(C)Cc1ccccc1` [neopentylbenzene] registered a flash point of 50.1 °C.

On to `Cc1ccccc1C` [o -xylene], for which the flash point was found to be 30.1 °C.

Molecule `CCCCCCCCc1ccccc1` [octylbenzene] displayed a flash point of 107.1 °C.

In the case of `CCc1ccc(C(C)C)cc1` [p -ethylcumene], the flash point was determined as 65.8 °C.

As to `CCCc1ccc(C)cc1` [p -propyltoluene], the flash point is 56.4 °C.

With `CC(C)(C)c1ccccc1` [tert -butylbenzene], the flash point is 44.1 °C.
